Test results: paper PMC6138693, “Structural determinants of Rab11 activation by the guanine nucleotide exchange factor SH3BP5” (Nature Communications, 2018)

Assays:
Rab11A [1] = target: T1, Rab11A (Homo sapiens, UniProt P62491, K24R, form not given); assay: Mant-GDP loading, then fluorescence release on GEF-driven exchange; assay type: binding; conditions: labelled compound; nucleotide site; Mg2+, 100 uM GTPgammaS, with and without SH3BP5
T1 construct: Rab11A with C-terminal His-tag kept, N-terminal GST cut by TEV; E. coli BL21 C41 (residues 1-211 given for the His-tagged HDX construct)
T1 sequence (P62491 1-211 K24R, form open): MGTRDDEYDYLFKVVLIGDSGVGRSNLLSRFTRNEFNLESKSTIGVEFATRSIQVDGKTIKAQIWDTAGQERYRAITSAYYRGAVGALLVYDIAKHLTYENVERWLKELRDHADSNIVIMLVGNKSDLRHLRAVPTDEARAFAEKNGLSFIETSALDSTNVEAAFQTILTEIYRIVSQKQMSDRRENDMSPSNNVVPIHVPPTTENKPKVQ

Rab11A [2] = target: T2, Rab11A (Homo sapiens, UniProt P62491, S25N, form not given); assay: as above; assay type: binding; conditions: labelled compound; without SH3BP5
T2 construct: Rab11A with C-terminal His-tag kept, N-terminal GST cut by TEV; E. coli BL21 C41 (residues 1-211 given for the His-tagged HDX construct)
T2 sequence (P62491 1-211 S25N, form open): as the sequence (P62491 1-211 K24R, form open) above, with R24K, S25N counted along it

Rab2A = target: T3, Rab2A (Homo sapiens, UniProt P61019); assay: Mant-GDP loading, fluorescence release assay; assay type: binding; conditions: labelled compound; nucleotide site; Mg2+, 100 uM GTPgammaS, SH3BP5 as exchange factor
T3 construct: recombinant in E. coli, N-terminal GST cut by TEV
T3 sequence (P61019 whole entry): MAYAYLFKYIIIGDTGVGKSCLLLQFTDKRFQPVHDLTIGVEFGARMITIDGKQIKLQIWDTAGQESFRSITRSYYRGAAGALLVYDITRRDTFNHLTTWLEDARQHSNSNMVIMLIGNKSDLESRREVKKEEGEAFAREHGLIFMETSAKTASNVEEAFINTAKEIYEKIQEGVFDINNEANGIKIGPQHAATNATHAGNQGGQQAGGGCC

Rab4B = target: T4, Rab4B (Homo sapiens, UniProt P61018); assay: Mant-GDP loading, fluorescence release assay; assay type: binding; conditions: labelled compound; nucleotide site; Mg2+, 100 uM GTPgammaS, SH3BP5 as exchange factor
T4 construct: recombinant in E. coli, N-terminal GST cut by TEV
T4 sequence (P61018 whole entry): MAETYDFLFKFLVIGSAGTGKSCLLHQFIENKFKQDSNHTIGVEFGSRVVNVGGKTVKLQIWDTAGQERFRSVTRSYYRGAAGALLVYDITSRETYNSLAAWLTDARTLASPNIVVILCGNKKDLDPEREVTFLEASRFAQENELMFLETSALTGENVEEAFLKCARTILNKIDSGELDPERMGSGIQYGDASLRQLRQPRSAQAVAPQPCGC

Rab25 = target: T5, Rab25 (Homo sapiens, UniProt P57735); assay: Mant-GDP loading, then fluorescence release on GEF-driven exchange; assay type: binding; conditions: labelled compound; nucleotide site; Mg2+, 100 uM GTPgammaS, SH3BP5 as exchange factor
T5 construct: C-terminal His-tag, N-terminal GST cut by TEV; E. coli Rosetta
T5 sequence (P57735 whole entry): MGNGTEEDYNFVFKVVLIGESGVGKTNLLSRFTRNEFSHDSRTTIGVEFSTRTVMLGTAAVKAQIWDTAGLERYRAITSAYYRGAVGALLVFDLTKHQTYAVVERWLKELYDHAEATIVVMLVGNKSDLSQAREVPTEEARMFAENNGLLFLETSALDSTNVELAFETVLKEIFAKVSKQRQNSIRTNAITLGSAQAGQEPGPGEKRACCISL

Rab12 = target: T6, Rab12 (Homo sapiens, UniProt Q6IQ22); assay: Mant-GDP loading, fluorescence release assay; assay type: binding; conditions: labelled compound; nucleotide site; Mg2+, 100 uM GTPgammaS, SH3BP5 as exchange factor
T6 construct: recombinant in E. coli, N-terminal GST cut by TEV
T6 sequence (Q6IQ22 whole entry): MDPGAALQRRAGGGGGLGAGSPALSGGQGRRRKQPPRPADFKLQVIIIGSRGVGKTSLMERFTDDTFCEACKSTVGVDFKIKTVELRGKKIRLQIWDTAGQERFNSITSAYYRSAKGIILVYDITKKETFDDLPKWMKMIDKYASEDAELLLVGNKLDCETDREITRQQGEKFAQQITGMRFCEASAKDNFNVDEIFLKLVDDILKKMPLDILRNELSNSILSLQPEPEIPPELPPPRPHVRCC

Rab11A [3] = target: T7, Rab11A (Homo sapiens, UniProt P62491); assay: Mant-GDP loading, then fluorescence release on GEF-driven exchange; assay type: binding; conditions: labelled compound; nucleotide site; Mg2+, 100 uM GTPgammaS, SH3BP5 as exchange factor
T7 construct: Rab11A with C-terminal His-tag kept, N-terminal GST cut by TEV; E. coli BL21 C41 (residues 1-211 given for the His-tagged HDX construct)

Rab8 = target: T8, Rab8 (Homo sapiens, UniProt P61006); assay: Mant-GDP loading, fluorescence release assay; assay type: binding; conditions: labelled compound; nucleotide site; Mg2+, 100 uM GTPgammaS, SH3BP5 as exchange factor
T8 construct: gene RAB8A; recombinant in E. coli, N-terminal GST cut by TEV
T8 sequence (P61006 whole entry): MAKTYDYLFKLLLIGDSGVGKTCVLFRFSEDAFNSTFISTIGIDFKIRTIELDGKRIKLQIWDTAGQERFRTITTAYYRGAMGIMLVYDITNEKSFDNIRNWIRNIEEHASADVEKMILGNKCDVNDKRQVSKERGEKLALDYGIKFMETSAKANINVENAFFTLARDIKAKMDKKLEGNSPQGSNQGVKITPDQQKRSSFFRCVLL

Rab11A [4] = target: T9, Rab11A (Homo sapiens, UniProt P62491, I44A, form not given); assay: Mant-GDP loading, then fluorescence release on GEF-driven exchange; assay type: binding; conditions: labelled compound; nucleotide site; Mg2+, 100 uM GTPgammaS, with and without SH3BP5
T9 construct: Rab11A with C-terminal His-tag kept, N-terminal GST cut by TEV; E. coli BL21 C41 (residues 1-211 given for the His-tagged HDX construct)
T9 sequence (P62491 1-211 I44A, form open): as the sequence (P62491 1-211 K24R, form open) above, with R24K, I44A counted along it

Rab11A [5] = target: T10, Rab11A (Homo sapiens, UniProt P62491, S40F, form not given); assay: as above; assay type: binding; conditions: labelled compound; nucleotide site; Mg2+, 100 uM GTPgammaS, with and without SH3BP5
T10 construct: Rab11A with C-terminal His-tag kept, N-terminal GST cut by TEV; E. coli BL21 C41 (residues 1-211 given for the His-tagged HDX construct)
T10 sequence (P62491 1-211 S40F, form open): as the sequence (P62491 1-211 K24R, form open) above, with R24K, S40F counted along it

Rab11A [6] = target: T11, Rab11A (Homo sapiens, UniProt P62491, F36A, form not given); assay: as above; assay type: binding; conditions: labelled compound; nucleotide site; Mg2+, 100 uM GTPgammaS, with and without SH3BP5
T11 construct: Rab11A with C-terminal His-tag kept, N-terminal GST cut by TEV; E. coli BL21 C41 (residues 1-211 given for the His-tagged HDX construct)
T11 sequence (P62491 1-211 F36A, form open): as the sequence (P62491 1-211 K24R, form open) above, with R24K, F36A counted along it

Rab14 = target: T12, Rab14 (Homo sapiens, UniProt P61106); assay: Mant-GDP loading, fluorescence release assay; assay type: binding; conditions: labelled compound; nucleotide site; Mg2+, 100 uM GTPgammaS, SH3BP5 as exchange factor
T12 construct: recombinant in E. coli, N-terminal GST cut by TEV
T12 sequence (P61106 whole entry): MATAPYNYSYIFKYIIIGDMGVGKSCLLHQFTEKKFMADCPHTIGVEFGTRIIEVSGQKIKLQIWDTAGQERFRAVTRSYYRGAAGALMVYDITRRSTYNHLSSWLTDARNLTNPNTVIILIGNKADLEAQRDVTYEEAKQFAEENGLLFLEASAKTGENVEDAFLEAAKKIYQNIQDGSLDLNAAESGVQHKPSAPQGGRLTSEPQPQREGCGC

Rab11A [7] = target: T13, Rab11A (Homo sapiens, UniProt P62491, R82C, form not given); assay: Mant-GDP loading, then fluorescence release on GEF-driven exchange; assay type: binding; conditions: labelled compound; nucleotide site; Mg2+, 100 uM GTPgammaS, with and without SH3BP5
T13 construct: Rab11A with C-terminal His-tag kept, N-terminal GST cut by TEV; E. coli BL21 C41 (residues 1-211 given for the His-tagged HDX construct)
T13 sequence (P62491 1-211 R82C, form open): as the sequence (P62491 1-211 K24R, form open) above, with R24K, R82C counted along it

Rab11A [8] = target: T14, Rab11A (Homo sapiens, UniProt P62491, Q70L, form not given); assay: as above; assay type: binding; conditions: labelled compound; nucleotide site; Mg2+, 100 uM GTPgammaS, SH3BP5 as exchange factor
T14 construct: Rab11A with C-terminal His-tag kept, N-terminal GST cut by TEV; E. coli BL21 C41 (residues 1-211 given for the His-tagged HDX construct)

Rab11A [9] = target: T15, Rab11A (Homo sapiens, UniProt P62491, L38P, form not given); assay: as above; assay type: binding; conditions: labelled compound; nucleotide site; Mg2+, 100 uM GTPgammaS, with and without SH3BP5
T15 construct: Rab11A with C-terminal His-tag kept, N-terminal GST cut by TEV; E. coli BL21 C41 (residues 1-211 given for the His-tagged HDX construct)
T15 sequence (P62491 1-211 L38P, form open): as the sequence (P62491 1-211 K24R, form open) above, with R24K, L38P counted along it

[10] = target: T16, SH3BP5 (31–455), N-terminally truncated (UniProt O60239 31-455); assay: HDX-MS; 1.0 µM Rab11(Q70L) and 1.0 µM SH3BP5 (31–455), incubated on ice with 20 µM EDTA for 1 h; D2O buffer 10 mM HEPES pH 7.5, 500 mM NaCl; 3 s at 1 °C and 3, 30, 300 s at room temperature; conditions: both partners purified
T16 construct: also called N-terminally truncated SH3BP5 (31–455); N-terminally truncated variant of SH3BP5; source: E. coli BL21 C41, purified (GSTrap, TEV cleavage, HiTrap Q, SEC); not shown: GST, N-terminal, cleaved
T16 sequence (looked up): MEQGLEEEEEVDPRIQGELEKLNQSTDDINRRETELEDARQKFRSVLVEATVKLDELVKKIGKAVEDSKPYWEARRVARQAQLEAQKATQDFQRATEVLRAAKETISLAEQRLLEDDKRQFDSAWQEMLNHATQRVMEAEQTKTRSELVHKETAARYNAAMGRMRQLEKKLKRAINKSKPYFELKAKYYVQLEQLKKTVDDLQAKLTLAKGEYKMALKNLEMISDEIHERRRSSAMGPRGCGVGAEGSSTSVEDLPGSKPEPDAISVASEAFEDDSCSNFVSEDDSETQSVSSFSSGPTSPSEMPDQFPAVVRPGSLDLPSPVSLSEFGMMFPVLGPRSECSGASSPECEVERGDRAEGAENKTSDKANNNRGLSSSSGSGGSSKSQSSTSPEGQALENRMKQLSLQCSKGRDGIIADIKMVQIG

[11] = target: T17, SH3BP5 (1–265), crystal construct (N-terminal GEF domain of SH3BP5) (UniProt O60239 1-265); assay: SEC; SH3BP5 truncation and Rab11(Q70L) mixed at an equimolar amount, 5 min at 4 °C, 20 mM EDTA (pH 7.5) for 1 h at 4 °C, loaded onto Superdex 200 10/300; conditions: both partners purified
T17 construct: A SeMet form made in E. coli B834 was used for phasing; source: E. coli BL21 C41, purified (GSTrap, TEV cleavage, HiTrap Q, SEC); not shown: GST, N-terminal, cleaved
T17 sequence (looked up): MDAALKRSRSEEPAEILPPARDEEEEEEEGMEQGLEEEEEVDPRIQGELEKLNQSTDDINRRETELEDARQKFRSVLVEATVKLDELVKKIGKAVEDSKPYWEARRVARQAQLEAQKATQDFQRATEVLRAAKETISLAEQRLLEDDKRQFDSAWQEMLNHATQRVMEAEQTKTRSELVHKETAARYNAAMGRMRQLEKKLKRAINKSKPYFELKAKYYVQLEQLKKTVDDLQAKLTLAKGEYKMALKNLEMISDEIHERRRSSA

[12] = target: T16, SH3BP5 (31–455), N-terminally truncated; assay: HDX-MS; 0.4 µM C-terminally His-tagged Rab11A (1–211) and 0.4 µM SH3BP5 (31–455), with or without 0.2 mg/mL nickelated lipid vesicles; D2O buffer 10 mM HEPES pH 7.5, 200 mM NaCl; 3, 30, 300, 3000 s at room temperature; conditions: both partners purified

## CNc1ccccc1C(=O)O[C@H]1C[C@H](n2cnc3c(=O)[nH]c(N)nc32)O[C@@H]1COP(=O)(O)OP(=O)(O)O [Mant-GDP, 3-(N-methyl-anthraniloyl)-2-deoxy-GDP]
Rab11A [1]
  Mant-GDP loading, then fluorescence release on GEF-driven exchange: this mutant had rapid nucleotide exchange even in the absence of SH3BP5
Rab11A [2]
  Mant-GDP loading, then fluorescence release on GEF-driven exchange: Rab11A (S25N) caused rapid release of Mant-GDP even in the absence of SH3BP5
Rab2A
  Mant-GDP loading, fluorescence release assay: panel of evolutionarily related Rab GTPases loaded with Mant-GDP
Rab4B
  Mant-GDP loading, fluorescence release assay: panel of evolutionarily related Rab GTPases loaded with Mant-GDP
Rab25
  Mant-GDP loading, then fluorescence release on GEF-driven exchange: Rab11 isoforms Rab11A and Rab25 loaded with the fluorescent GDP analog
Rab12
  Mant-GDP loading, fluorescence release assay: panel of evolutionarily related Rab GTPases loaded with Mant-GDP
Rab11A [3]
  Mant-GDP loading, then fluorescence release on GEF-driven exchange: Rab11 isoforms Rab11A and Rab25 loaded with the fluorescent GDP analog
Rab8
  Mant-GDP loading, fluorescence release assay: panel of evolutionarily related Rab GTPases loaded with Mant-GDP
Rab11A [4]
  Mant-GDP loading, then fluorescence release on GEF-driven exchange: F36 and I44 residues, with mutation of these residues to Alanine
Rab11A [5]
  Mant-GDP loading, then fluorescence release on GEF-driven exchange: Rab2A (L38P), Rab8 (S40F), and Rab14 (K41P) were also found to decrease GEF activity
Rab11A [6]
  Mant-GDP loading, then fluorescence release on GEF-driven exchange: F36 and I44 residues, with mutation of these residues to Alanine
Rab14
  Mant-GDP loading, fluorescence release assay: panel of evolutionarily related Rab GTPases loaded with Mant-GDP
Rab11A [7]
  Mant-GDP loading, then fluorescence release on GEF-driven exchange: with R82 only partially decreasing SH3BP5 GEF activity
Rab11A [8]
  Mant-GDP loading, then fluorescence release on GEF-driven exchange: GEF assays on Q70L Rab11A showed a slightly elevated GEF-mediated nucleotide exchange rate
Rab11A [9]
  Mant-GDP loading, then fluorescence release on GEF-driven exchange: Rab2A (L38P), Rab8 (S40F), and Rab14 (K41P) were also found to decrease GEF activity

B1: Rab11A Q70L (1–213) (natural protein, human, UniProt P62491 1-213, looked up)
chain: MGTRDDEYDYLFKVVLIGDSGVGKSNLLSRFTRNEFNLESKSTIGVEFATRSIQVDGKTIKAQIWDTAGLERYRAITSAYYRGAVGALLVYDIAKHLTYENVERWLKELRDHADSNIVIMLVGNKSDLRHLRAVPTDEARAFAEKNGLSFIETSALDSTNVEAAFQTILTEIYRIVSQKQMSDRRENDMSPSNNVVPIHVPPTTENKPKVQCC
notes: called full-length in the results; dominant active switch II mutant Q70L; Nucleotide removed with EDTA before complex formation; The limits 1-213 are printed for the crystal only; A SeMet form was used for phasing; also called Rab11(Q70L); full-length Q70L Rab11A; source: E. coli BL21 C41, purified (GSTrap, TEV cleavage, HiTrap Q, SEC); not shown: GST, N-terminal, cleaved
[10]
  binding result: binds
[11]
  binding result: binds

B2: WT Rab11A (1–211, C-term his) (natural protein, human, UniProt P62491 1-211, looked up)
chain: MGTRDDEYDYLFKVVLIGDSGVGKSNLLSRFTRNEFNLESKSTIGVEFATRSIQVDGKTIKAQIWDTAGQERYRAITSAYYRGAVGALLVYDIAKHLTYENVERWLKELRDHADSNIVIMLVGNKSDLRHLRAVPTDEARAFAEKNGLSFIETSALDSTNVEAAFQTILTEIYRIVSQKQMSDRRENDMSPSNNVVPIHVPPTTENKPKVQ
notes: Rab11A, residues 1-211, wild type; The limits 1-211 are printed for the HDX-MS experiment; In GEF assays it was loaded with Mant-GDP; also called Rab11A-His6; Rab11a-His6; source: E. coli BL21 C41, purified (GSTrap, TEV cleavage, HiTrap Q, SEC); not shown: GST, N-terminal, cleaved; His6, C-terminal, kept
[12]
  binding result: binds
